According to patent US20040141944A1, “Inhibition of xenoreactive antibodies” (priority 1998, published 2004):

Key:
IgM XNAs = assay: effect of TPC on xenoreactive antibody level in baboons; format: in vivo, baboon
Description: The TPC molecule 410S was synthesized as described in Example 5 above. Baboons were first immunoapheresed using α-gal-columns in order to remove circulating αGal antibodies, and to set a basis for comparison of the ability of TPC to remove αGal antibodies from the circulation.
The procedures for treating and transplanting the baboons are described in Shu S. Lin et al., Transplant Immunol. 5:212-218, 1997. Descriptions of methods for making αGal-columns are contained in U.S. Pat. Nos. 5,695,759 and 5,651,968, which are herein incorporated by reference. Briefly, each baboon subject was prepared for plasma treatment by induction of anesthesia with ketamine HCl and pentamine, and anesthesia was then maintained during all procedures under inhalation and Forane™ gas. The subject's bloodstream was asceptically connected by intravenous puncture to a plasmapheresis machine which separated the plasma from the cells and platelets. The plasma was asceptically conducted to an α-gal column; effluent from the column was pumped and remixed on-line with the cells and platelets, and reinfused to the subject. This procedure was carried out continuously for 2-3 plasma volumes. The blood flow rate of 75-100 cc/min (with a plasma flow rate of 35-50 cc/min), was well tolerated by the subject. The entire column procedure lasted 1-1.5 hours.
250 mg of TPC (410S, as described in Example 5 above) was administered as noted in FIGS. 12 and 13.

[1] = system: circulating anti-Gal ASC (IgM and IgG); assay: in vivo effects of TPC administration on circulating anti-Gal ASC (ELISPOT); design: species or system cynomologous monkeys
Description: To each well of the first 10 columns of a sterile hydrazine modified polystyrene 96-well plate (Corning Costar, Cambridge, Mass.), 100 μL per well of a solution containing 3.2 mg/mL αGal(1,3)Gal β 1-4 GlcNAc, 3.1 mg/mL EDC and 2.4 mg/mL NHS were added in a darkened cold room and the reaction proceeded for four hours. After careful washing with sterile H2O, the plates were completely covered with plastic strips and stored at 4° C. until use. Plates were blocked with sterile 400 ul/well of PBS/1% HSA for 2 hours at 37° C. Peripheral blood mononuclear cells were isolated by Ficoll-Hypaque (specific gravity, 1.077 g/mL; Pharmacia Fine Chemicals, Piscatawy, N.J.) density gradients at 400 g for 30 min. at 22° C. Low density mononuclear cells at the interfaces were harvested, washed twice by centrifugation (400 g for 10 min.) and resuspended in serum-free complete culture medium consisting of RPMI 1640 (GIBCO, Grand Island, N.Y.) supplemented with 1% HSA, 2 mM L-glutamine, and 100 U/mL penicillin/100 ug/mL streptomycin (GIBCO, Grand Island, N.Y.). Manual hemacytometer cell counts and viability determinations were performed using trypan blue exclusion dye. Thereafter, serial dilutions of PBMNCs (starting at 5×10^5 cells) in 100 ul of serum-free complete culture medium were added to each well and incubated for 18-24 hours at 37° C. in 5% CO2. After washing 8 times using PBS/0.1% Tween-20, the plates were incubated with biotinylated isotype specific goat anti-human Abs (biotin goat anti-human IgM Cat#62-7540; biotin goat anti-human IgG (H&L) Cat# 62-7140, Zymed, San Francisco, Calif.)(1:1000) at 37° C. for 4 hours. After washing, streptavidin conjugated alkaline phosphatase (Cat# 43-4322, Zymed, San Francisco, Calif.) (1:1000) was added for 30 min. at 37° C. Finally, after washing an additional 8 times with PBS/0.1% Tween-20, 5-Bromo-4-chloro-3indolyl-phosphate (Cat# B-8503, Sigma, St. Louis, Mo.) dissolved in 1% low-melt sea-plaque agarose (FMC Bioproducts, Cat#50101) was added as gel substrate to each well. Plates were incubated overnight in the dark at room temperature and single Ab-secreting, spot forming cells (ASC) were visualized, analyzed and counted under low magnification using an inverted phase microscope. Data represents total isotype specific anti-gal Ab-secreting cells/10^6 PBMNCs, calculated from serially diluted cell samples.
To investigate the in vivo response of circulating anti-Gal ASC to TPC administration, we measured the number of ASC per 10^6 peripheral blood mononuclear cells isolated from cynomologous monkeys treated with either TPC (410S) or blocked-PEG as control. Blocked PEG is a 4-arm, 10,000 MW PEG-amine that was reacted with acetic anhydride in order to block the amine-groups of the PEG. Briefly, heparinized peripheral blood samples (2-3 mL) from TPC and PEG treated monkeys were obtained prior to experimentation, after 6 dosages of TPC, 7 days following porcine heart transplantation with daily infusions, 7 days post infusion termination, and 18 days post infusion. Mononuclear cells were isolated via Ficoll-Hypaque gradient centrifugation and assayed for anti-Gal IgM and IgG ASC using the ELISPOT assay as described in Example 15. […] In contrast, the number of IgG ASC in the PEG treated animal increased 14.9-fold with no detectable change in the number of IgM ASC. Seven days after the termination of TPC treatment, 14 days post transplantation, circulating IgG and IgM ASC were 27-84% and 1.3-9.8% of baseline values, respectively. In the PEG treated monkey, IgG ASC were 4.4 above baseline and IgM ASC levels reduced 51%.

[2] = day 7 post transplantation (porcine transgenic heart), daily TPC
[3] = seven days after termination of TPC treatment, 14 days post transplantation

(αGal(1,3)Gal β 1-4 GlcNAc)4-PEG [Example 410S]
IgM XNA, % pretreatment levels (IgM XNAs; Baboon 376-96, after next administration of 250 mg TPC): about 5% | circulating IgM XNA levels (IgM XNAs; Baboon 376-96, after second immunoapheresis plus 250 mg TPC): undetectable | circulating levels of IgM XNA (IgM XNAs; Baboon 376-96, six subsequent administrations of 250 mg TPC every 3 or 4 days): lower each time | IgM XNA, % pretreatment levels (IgM XNAs; Baboon 376-96, three days after first TPC (rebound)): 35% | levels of IgM XNAs (IgM XNAs; Baboon 377-96, infusion of 250 mg TPC after third immunoapheresis): undetectable | IgM XNA levels, % pretreatment levels (IgM XNAs; Baboon 377-96, three days after the 250 mg TPC infusion (rebound)): about 15% | IgG ASC values ([1]; 18 days post TPC termination): returned to near normal baseline values | circulating IgG ASC levels decreased [1, 2]: 70-99.7% | circulating IgM ASC levels decreased [1, 2]: 98.5-100% | circulating anti-Gal ASC (IgM and IgG) numbers inhibited ([1]; following 6 dosages of TPC over 18 days): 70-99% | circulating IgG ASC, % of baseline values [1, 3]: 27-84% | circulating IgM ASC, % of baseline values [1, 3]: 1.3-9.8%
